Reference: patent US5030638A, “Method of antiviral enhancement” (priority 1990, dated 1991)
Values after ≈ are worked out from the molar mass of the structure shown. Like-named read-outs stand apart in the source and are kept apart here.

Legend:
[1] = molecular target: almond β-glucosidase; test: Beta-glucosidase inhibition assay, pH 7.4; assay type: biochemical; settings: for IC50: pH 7.4, read-out: Enzyme Inhibition-IC50, Almond β-Glucosidase pH 7.4; for Inhibition Index (first, head is drawing 3) / Inhibition Index (second, head is drawing 4): ratio of IC50 values; for Inhibition Index (first, head is drawing 3): numerically almond pH 4.8 / almond pH 7.4; for Inhibition Index (second, head is drawing 4): numerically yeast α pH 7.4 / almond β pH 7.4
Procedure: (§1) Yeast alpha-glucosidase and almond beta-glucosidase activities were measured by a modification of the method of Evans, et al., Phytochemistry 22, 768-770 (1983). The modifications included 1) assay of activities at pH 7.4 in HEPES (N-2-hydroxyethylpiperazine-N'-2-ethanesulfonic acid) buffer, 2) measurement in 96 well microtiter plates and 3) inclusion of 10% DMSO in control and test samples.
(§2) The release of p-nitrophenol from the substrate p-nitrophenylglycoside was measured spectrophotometrically in the presence and absence of test compound. Each assay included a known inhibitor of the enzyme as a standard.
To 100 μl 50 mM HEPES buffer, pH 7.4, in a microtiter plate, add 20 μl test compound in DMSO (DMSO alone in control), 40 μl (0.136 units) beta-glucosidase (Sigma) in HEPES buffer and pre-incubate at room temperature for 15 minutes. Add 40 μl 1.25 mM p-nitrophenyl-beta-D-glucopyranoside in HEPES buffer, as substrate and monitor absorbance change at 405 nm in a Biotek EIA Autoreader. Absorption change was measured at 15 to 25 minutes (reaction is linear for at least 30 minutes). Each sample was tested in triplicate. […] Castanospermine was used as standard inhibitor.

[2] = test system: visna virus; test: Plaque reduction assay, inhibition of visna virus in vitro; assay type: cell-based; settings: Visna-maedi virus, read-out: Antiviral Activity (plaque reduction)
Procedure: (§3) Sheep choroid plexus(SCP) cells were obtained from American Type Culture Collection (ATCC) catalogue number CRL 1700 and were routinely passaged in vitro in Dulbecco's Modified Eagles (DME) medium supplemented with 20% fetal bovine serum (FBS). SCP cells were passaged once per week at a 1:2 or 1:3 split ratio. Visna was titrated by plaque assay in six-well plates. Virus pools were stored at -70° C.
(§4) SCP cells were cultured in 6-well plates to confluence. Wells were washed two times with serum free Minimal Essential Medium (MEM) to remove FBS. 0.2 ml of virus was added per well in MEM supplemented with 4 mM glutamine and gentamycin. After 1 hour adsorption, the virus was aspirated from each well. The appropriate concentration of each compound in 5 ml of Medium 199 (M-199) supplemented with 2% lamb serum, 4 mM glutamine, 0.5% agarose and gentamycin was added to each well. […] To terminate the test: cultures were fixed in 10% formalin, the agar removed, the monolayers stained with 1% crystal violet and plaques counted. Each compound concentration was run in triplicate. […] 0 is no toxicity observed while 4 is total lysing of the cell monolayer.

[3] = test system: Sheep choroid plexus (SCP) cells; test: Toxicity in control wells (without virus) of the plaque reduction assay; assay type: cell-based; parameters: key: 0: no toxicity; 4: total cell lysates; settings: graded 0 to 4
Procedure: as §3, §4
Toxicity graded on 0 to 4 scale 0 = no toxicity, 4 = total cell lysates

[4] = molecular target: glucosidase I; settings: Schweden et al.; compared to N-methyl- and N-butyl-derivatives; cited from earlier work
[5] = Solubility in aqueous solvent (antiviral test); assay type: physicochemical
[6] = molecular target: T1, yeast α-glucosidase (Saccharomyces cerevisiae, UniProt P53341); test: Alpha-glucosidase inhibition assay, pH 7.4; assay type: biochemical
T1 construct: purchased Sigma
T1 sequence (P53341 whole entry): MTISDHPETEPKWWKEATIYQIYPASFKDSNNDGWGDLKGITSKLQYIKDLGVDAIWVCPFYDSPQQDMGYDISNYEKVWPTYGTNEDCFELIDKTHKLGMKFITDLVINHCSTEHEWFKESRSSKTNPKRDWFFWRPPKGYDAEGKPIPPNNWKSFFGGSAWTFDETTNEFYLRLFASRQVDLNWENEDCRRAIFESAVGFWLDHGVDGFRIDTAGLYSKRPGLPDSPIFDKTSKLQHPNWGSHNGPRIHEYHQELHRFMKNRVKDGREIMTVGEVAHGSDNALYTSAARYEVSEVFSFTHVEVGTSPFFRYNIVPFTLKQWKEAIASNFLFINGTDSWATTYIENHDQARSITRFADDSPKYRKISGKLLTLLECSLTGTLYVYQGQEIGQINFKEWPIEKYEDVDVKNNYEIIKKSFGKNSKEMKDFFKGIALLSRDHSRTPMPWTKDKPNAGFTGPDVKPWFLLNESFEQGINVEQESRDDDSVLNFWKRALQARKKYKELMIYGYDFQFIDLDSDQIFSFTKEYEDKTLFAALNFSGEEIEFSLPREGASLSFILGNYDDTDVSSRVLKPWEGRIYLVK
Procedure: as §1, §2
To 100 μl 50 mM HEPES buffer, pH 7.4, in a microtiter plate, add 20 μl test compound in DMSO (DMSO alone in control), 40 μl (0.013 units) yeast alpha-glucosidase (Sigma) in HEPES buffer and pre-incubate at room temperature for 15 minutes. Add 40 μl 1.25 mM p-nitrophenyl-alpha-D-glucopyranoside (Sigma) in HEPES buffer, as substrate, and monitor absorbance change at 405 nm in Biotek EIA Auto-reader. Absorption change was measured at 15 to 25 minutes (reaction was linear for at least 30 minutes). Each sample was tested in triplicate. […] Deoxynojirimycin was used as standard inhibitor.

[7] = test system: HIV-1, strain HTLV-IIIB; test: Reduction of cytopathogenic effect (CPE) in HIV-1 infected CEM cells, MTT assay; assay type: cell-based; settings: for inhibition at 1 µg/mL / inhibition at 3.2 µg/mL / inhibition at 10 µg/mL / inhibition at 32 µg/mL / inhibition at 500 µg/mL / inhibition at 100 µL/mL / IC50: Human immunodeficiency virus 1, IIIB, CCRF-CEM, 216 h; for inhibition at 1 µg/mL: 1.0 μg/ml; for inhibition at 1 µg/mL / inhibition at 3.2 µg/mL / inhibition at 10 µg/mL / inhibition at 32 µg/mL / inhibition at 500 µg/mL / inhibition at 100 µL/mL: read-out: Percent Reduction of CPE; for inhibition at 3.2 µg/mL: 3.2 μg/ml; for inhibition at 10 µg/mL: 10 μg/ml; for inhibition at 32 µg/mL: 32 μg/ml; for inhibition at 500 µg/mL: 500 μg/ml; for inhibition at 100 µL/mL: 100 μl/ml (so in the source); for IC50: read-out: ID50 (median inhibitory dose); for inhibition of HIV-1: in vitro
Procedure: These tests involved plating of susceptible human host cells which are syncytium-sensitive with and without virus in microculture plates, adding various concentrations of the test compound, incubating the plates for 9 days (during which time infected, non-drug treated control cells are largely or totally destroyed by the virus), and then determining the number of remaining viable cells using a colorimetric endpoint.
Tissue culture plates were incubated at 37° C. in a humidified, 5% CO2 atmosphere and observed microscopically for toxicity and/or cytopathogenic effect (CPE). At 2 and 6 days after infection, fresh dilutions of each test article were prepared from the frozen stock, and a 20 μl volume of each dilution (prepared as a 10× concentration was added to the appropriate wells of both infected and uninfected cells.
On the 9th day post-infection, the cells in each well were resuspended and a 100 μl sample of each cell suspension was removed for use in an MTT assay. A 20 μl volume of a 5 mg/ml solution of 3-(4,5-dimethylthiazol-2-yl)-2,5-diphenyltetrazolium bromide (MTT) was added to each 100 μl cell suspension, and the cells were incubated at 37° C. in 5% CO2 for 4 hours. […] A 100 μl volume of a solution of 10% sodium dodecyl sulfate in 0.01N hydrochloric acid wa added to each sample, and the samples were incubated overnight. The absorbance at 590 nm was determined for each sample using a Molecular Devices Vmax microplate reader. This assay detects drug-induced suppression of viral CPE, as well as drug cytotoxicity, by measuring the generation of MTT-formazan by surviving cells.
Assays were done in 96-well tissue culture plates. CEM cells were treated with polybrene at a concentration of 2 μg/ml, and an 80 μl volume of cells (1×10^4 cells) was dispensed into each well. A 100 μl volume of each test article dilution (prepared as a 2× concentration) was added to 5 wells of cells, and the cells were incubated at 37° C. for 1 hour. A frozen culture of HIV-1, strain HTLV-IIIB, was diluted in culture medium to a concentration of 5×10^4 TCID50 per ml, and a 20 μl volume (containing 10^3 TCID50 of virus) was added to 3 of the wells for each test article concentration. […] A 20 μl volume of normal culture medium was added to the remaining wells to allow evaluation of cytotoxicity. Each plate contained 6 wells of untreated, uninfected, cell control samples and 6 wells of untreated, infected, virus control samples. Dideoxycytidine (DDC) and dideoxyadenosine (DDA) were included as positive control compounds.

[8] = molecular target: almond β-glucosidase; test: Beta-glucosidase inhibition assay, pH 4.8; assay type: biochemical; settings: read-out: Enzyme Inhibition-IC50, Almond β-Glucosidase pH 4.8
Procedure: as §1, §2
To 100 μl 50 mM sodium citrate buffer, pH 4.8, in a microtiter plate, add 15 μl test compound in DMSO (DMSO alone in control), 20 μl (0.017 units) beta-glucosidase (Sigma) in citrate buffer and pre-incubate at room temperature for 15 minutes. Add 25 μl 2.50 mM p-nitrophenyl-beta-D-glucopyranside in citrate buffer, as substrate. […] Add 50 μl 0.4M NaOH. Read absorption change at 405 nm in a Biotek EIA Autoreader. Each sample was tested in triplicate. […] Castanospermine was used as standard inhibitor.

[9] = test system: HIV; settings: cited from earlier work; for HIV inhibitory / antiviral activity: literature
[10] = test system: glucosidase; settings: Fleet et al.; cited from earlier work
[11] = Assay for excretion of metabolites in urine of rats; assay type: in vivo, rat
[12] = rat
[13] = test system: trimming glucosidase I; settings: Hettkamp et al.; cited from earlier work
[14] = test system: trimming glucosidase II; settings: Hettkamp et al.; cited from earlier work
[15] = in vivo; cited from earlier work
[16] = Preliminary pharmacokinetic tests in rats, total radioactivity in the blood; settings: rat
[17] = test system: α-glycosidase; settings: literature; cited from earlier work
[18] = HIV-1, CEM cells, reduction of CPE

CCCCCCN1C[C@H](O)[C@@H](O)[C@H](O)[C@H]1CO [Example 2, 1,5-(Hexylimino)-1,5-dideoxy-D-glucitol]
IC50 [1]: 4.8 µM | Inhibition Index (first, head is drawing 3) [1]: 30 | Inhibition Index (second, head is drawing 4) [1]: 77.3 | inhibition at 1 µM ([2]; 1 μM): 100% | inhibition at 10 µM ([2]; 10 μM): 94% | Toxicity ([3]; 1 μM): 2 | Toxicity ([3]; 10 μM): 0 | Ki, glucosidase I [4]: greater Ki values than the N-methyl- and N-butyl-derivatives | Solubility [5]: Solubility problem; compound did not completely dissolve | IC50 ([6]; pH 7.4, read-out: Enzyme Inhibition-IC50, Yeast α-Glucosidase pH 7.4): 371 µM | ID50 compared to N-butyl-DNJ ([7]; HIV-1, CEM cells): advantageous reduction in ID50 | inhibition at 1 µg/mL [7]: 0% | inhibition at 3.2 µg/mL [7]: 15.6% | inhibition at 10 µg/mL [7]: 65.6% | inhibition at 32 µg/mL [7]: 68% | inhibition at 500 µg/mL [7]: 147% | inhibition at 100 µL/mL [7]: 65.1% | IC50 [7, 18]: 7.3 µg/mL (≈ 29.5 µM) | inhibition of HIV-1 [7]: demonstrated to inhibit HIV-1 | IC50 [8]: 144 µM

OC[C@H]1NC[C@@H](O)[C@@H]1O (single isomer, unassigned) [D-enantiomer, 1,4-dideoxy-1,4-imino-arabinitol]
HIV inhibitory / antiviral activity [9]: very little effect on HIV replication | glucosidase inhibition [10]: known glucosidase inhibitors

CCCCCCCCCN1C[C@H](O)[C@@H](O)[C@H](O)[C@H]1CO [Example 3, 1,5(Nonylimino)-1,5-dideoxy-D-glucitol]
IC50 [1]: 18 µM | Inhibition Index (first, head is drawing 3) [1]: 10.8 | Inhibition Index (second, head is drawing 4) [1]: 14.8 | inhibition at 10 µM [2]: 69% | inhibition at 1000 µM [2]: 100% | metabolism [11]: metabolized | t1/2 in vivo [12]: 6.24 h | Toxicity ([3]; 10 μM): 0 | Toxicity ([3]; 1 mM): 4 | IC50 [6]: 267 µM | ID50 compared to N-butyl-DNJ ([7]; HIV-1, CEM cells): advantageous reduction in ID50 | IC50 [7]: 6.9 µg/mL (≈ 23.8 µM) | inhibition at 1 µg/mL [7]: 0% | inhibition at 3.2 µg/mL [7]: 25.7% | inhibition at 10 µg/mL [7]: 62.5% | inhibition at 32 µg/mL [7]: 28.9% | inhibition of HIV-1 [7]: demonstrated to inhibit HIV-1 | IC50 [8]: 196 µM

CCCCCCCCCCCCN1C[C@H](O)[C@@H](O)[C@H](O)[C@H]1CO [N-dodecyl-1-deoxynojirimycin]
effect on trimming glucosidase I [13]: to a lesser degree than deoxynojirimycin or N-methyl-deoxynojirimycin | effect on trimming glucosidase II [14]: to a lesser degree than deoxynojirimycin or N-methyl-deoxynojirimycin

CCCCN1C[C@H](O)[C@@H](O)[C@H](O)[C@H]1CO [N-Butyl-DNJ, Nbutyl-deoxynojirimycin, reference compound]
gastrointestinal side effects [15]: gastrointestinal side effects seen | inhibition at 10 µM ([2]; 10 μM): 57% | inhibition at 1000 µM ([2]; 1 mM): 100% | metabolism [11]: not metabolized | t1/2 in vivo [16]: 1.24 h | Toxicity ([3]; 10 μM): 0 | Toxicity ([3]; 1 mM): 0 | Solubility [5]: Solubility problem; compound did not completely dissolve | IC50 [6]: 536 µM | inhibition at 10 µg/mL [7]: 42.6% | inhibition at 32 µg/mL [7]: 49.8% | inhibition at 500 µg/mL [7]: 50.7% | inhibition at 100 µL/mL [7]: 53.3% | IC50 [7, 18]: 34 µg/mL (≈ 155 µM) | reduction of infectious viral particles ([9]; Karpas et al., at nontoxic concentrations): greater than five | HIV inhibitory / antiviral activity [9]: significant antiviral activity

OC[C@H]1NC[C@@H](O)[C@@H]1O (single isomer, unassigned) [L-enantiomer, 1,4-dideoxy-1,4-imino-arabinitol]
HIV inhibitory / antiviral activity [9]: strong HIV inhibitory activity | glucosidase inhibition [10]: known glucosidase inhibitors

OC[C@H]1NCC[C@@H](O)[C@@H]1O [fagomine]
α-glycosidase inhibitory activity [17]: known to have α-glycosidase inhibitory activity | HIV inhibitory / antiviral activity [9]: no HIV inhibition was observed
